For four compounds, Ki results are on record in ChEMBL document CHEMBL2321738, “Metabolites of the pyrimidine amine preladenant as adenosine a2a receptor antagonists” (ACS Med Chem Lett, 2013).

Some results are limits rather than exact numbers.

This test has as its target Adenosine receptor A2a (Homo sapiens, UniProt P29274). Nature of the test: Binding affinity to human adenosine A2a receptor by competition binding assay.

Chain of Adenosine receptor A2a (P29274 whole entry): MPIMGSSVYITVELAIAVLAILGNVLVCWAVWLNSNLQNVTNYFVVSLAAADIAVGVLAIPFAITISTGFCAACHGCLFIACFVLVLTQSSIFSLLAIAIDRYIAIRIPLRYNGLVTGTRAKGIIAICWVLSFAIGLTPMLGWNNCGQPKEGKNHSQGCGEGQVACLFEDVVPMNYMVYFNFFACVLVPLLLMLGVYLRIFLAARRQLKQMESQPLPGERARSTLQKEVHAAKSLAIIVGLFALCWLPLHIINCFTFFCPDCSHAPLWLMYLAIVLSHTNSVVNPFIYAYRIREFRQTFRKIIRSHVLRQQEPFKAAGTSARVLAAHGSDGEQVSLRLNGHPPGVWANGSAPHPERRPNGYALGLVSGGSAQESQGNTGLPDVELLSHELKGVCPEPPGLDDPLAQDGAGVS

The term Ki denotes a dissociation constant, usually derived from enzyme kinetics or from competition with a known ligand. Higher therefore signals lower affinity. Turning to `COCCOc1ccc(N2CCN(CCn3ncc4c3nc(N)n3nc(C(O)CCC(=O)O)nc43)CC2)cc1` (centres undefined), the inhibitory constant (Ki) is > 1 µM.

In the case of `Nc1nc2c(cnn2CCN2CCN(c3ccc(OCC(=O)O)cc3)CC2)c2nc(-c3ccco3)nn12`, affinity was put at a Ki of 0.0014 µM. With `Nc1nc2c(cnn2CCN2CCN(c3ccc(OCC(=O)O)cc3)CC2)c2nc(C(O)CCC(=O)O)nn12` (centres undefined), the Ki is > 1 µM. The same measure for `Nc1nc2c(cnn2CC(=O)O)c2nc(-c3ccco3)nn12`: > 1 µM.
